Results reported in patent US8420607B2 (priority 2006, dated 2013).

How the values were obtained:
[1] = tested on: rabbit anti-live spore B. anthracis Sterne 34F2 antiserum; type: binding
[2] = tested on: anti-anthrose IgG in rhesus macaque sera; type: binding, rhesus macaques
[3] = tested on: rabbit anti-irradiated spore B. anthracis Sterne 34F2 antiserum; type: binding
[4] = tested on: rabbit anti-B. anthracis live spore antiserum IgG; type: binding
[5] = tested on: IgG antibodies of rabbit anti-live spore, anti-irradiated spore and anti-polysaccharide-KLH antisera; type: binding
[6] = tested on: rabbit anti-spore serum (live spore antiserum); type: binding

**Q.** How did the “Reduction in reporter signal (OD) compared to the control” value [1] turn out when `COC1C(OC2C(O)C(C)OC(OC3C(O)C(C)OC(OCCCN)C3O)C2O)OC(C)C(NC(C)=O)C1O` [analogue 4, 3-aminopropyl O-(4-acetamido-2-O-methyl-4,6-dideoxy-β-D-glucopyranosyl)-(1→3)-O-(α-L-rhamnopyranosyl)-(1→3)-β-L-rhamnopyranoside] was run?
**A.** Its value is 17%.

**Q.** Which “Inhibition of anti-anthrose response measured by ELISA” value [2] does the source give for `CO[C@H]1[C@H](O[C@@H]2[C@@H](O)[C@H](C)O[C@@H](O[C@@H]3[C@@H](O)[C@H](C)O[C@@H](OCCCN)[C@@H]3O)[C@@H]2O)O[C@H](C)[C@@H](NC(=O)CC(C)(C)O)[C@@H]1O` [trisaccharide 1, 3-aminopropyl O-(4-(3-hydroxy-3-methylbutamido)-2-O-methyl-4,6-dideoxy-β-D-glucopyranosyl)-(1→3)-O-(α-L-rhamnopyranosyl)-(1→3)-α-L-rhamnopyranoside] here?
**A.** The value was “specifically inhibited”.

**Q.** What about the “Inhibition of serum binding to KLH-A-3” value [2] of the same compound?
**A.** The value was “inhibited binding”.

**Q.** What about the “Inhibition of serum binding to KLH-conjugated trisaccharide” value [2] of the same compound?
**A.** Its value is “Binding could be specifically inhibited”.

**Q.** What about the “Inhibition of interaction of antisera from rabbits immunized with irradiated spores” value [3] of the same compound?
**A.** The value was “could also be inhibited in a dose response manner”.

**Q.** What about the “Inhibition of antiserum binding to B. anthracis Pasteur HF-PS-BSA” value [4] of the same compound?
**A.** Its value is “no inhibition was observed”.

**Q.** What about the “Drop in OD by competing free trisaccharide” value [1] of the same compound?
**A.** Its value is “significant drop in OD”.

**Q.** How did the “Relative recognition by antibodies elicited by the live spore vaccine” value [5] turn out when `CC1OC(OC2C(O)C(C)OC(OCCCN)C2O)C(O)C(OC2OC(C)C(NC(=O)CC(C)(C)O)C(O)C2O)C1O` [trisaccharide 2, 3-aminopropyl O-(4-(3-hydroxy-3-methylbutamido)-4,6-dideoxy-β-D-glucopyranosyl)-(1→3)-O-(α-L-rhamnopyranosyl)-(1→3)-α-L-rhamnopyranoside] was run?
**A.** The value was “recognized trisaccharide 2 much better than 1”.

**Q.** Which “Reduction in reporter signal (OD) compared to the control” value [1] does the source give for `COC1C(OC2C(O)C(C)OC(OC3C(O)C(C)OC(OCCCN)C3O)C2O)OC(C)C(NC(=O)CC(C)C)C1O` [trisaccharide 3, 3-aminopropyl O-(4-(3-methylbutamido)-2-O-methyl-4,6-dideoxy-β-D-glucopyranosyl)-(1-→3)-O-(α-L-rhamnopyranosyl)-(1→3)-α-L-rhamnopyranoside] here?
**A.** The value was 85%.

**Q.** For maltoheptaose [reference compound], which “Inhibition of antiserum binding to B. anthracis HF-PS-BSA” value [6] is on record?
**A.** The value was “no significant inhibition”.
